The text below walks through data of patent US20230104283A1, “JNK INHIBITOR, AND PHARMACEUTICAL COMPOSITION AND USE THEREOF” (WUHAN LL SCIENCE AND TECHNOLOGY DEVELOPMENT CO. , LTD, priority 2019, published 2023).

The structures appear in SMILES notation. Where only a bound is given, the exact number is not on record here.

For one experiment, the target named is T1, JNK1 kinase (Homo sapiens, UniProt P45983).
T1 construct: purchased Carna Biosciences 04-163
Description: JNK1 activity screening (time-resolved fluorometric HTRF kinase assay). It is filed as biochemical. To be noted: enzymatic assay, activity level. As for the experimental part: JNK1 activity screening. JNK1 activity was detected using a 96-well (Cisbio, 66PL96025) time-resolved fluorometric assay. The JNK1 assay was conducted in the following assay buffer: 10 mM MgCl2 (Sigma, M1028), 1 mM MnCl2 (Sigma, M1787), 1 mM DTT (Sigma, D0632) and 1× Enzymatic buffer/kinase (Cisbio, 62EZBFDC). By using the assay buffer, 3 μL of 0.1 ng/μL JNK1 kinase (Carna Biosciences, 04-163) was added to a 96-well microplate, and then 4 μL of a compound diluted appropriately (with a DMSO content of 2.5%) was added. The resulting mixture was incubated at room temperature for 0.5 h. To start the reaction, the assay buffer was used to mix 0.003 μM ATP (Aladdin, A7699) and 30 μM substrate ATF2-GST fusion (Cisbio, 64CUS000AFPEB), and 3 μL of the mixed solution was added to the microplate. The resulting mixture was incubated at room temperature for 2.5 h. HTRF detection buffer ([…], 62SDBRDD) was used then to prepare a mixture of 5 μg/mL MAb Anti GST-XL665 (Cisbio, 61GSTXLA) and 0.045 μg/mL PAb Anti-phospho ATF2-K (Cisbio, 61P12KAZ), and 10 μL of the mixture was added to the plate to terminate the reaction. After incubation for about 12 h, the plate was read on a Perkin-Elmer Envision reader.

For experiment [1], the system named is RAW264.7 phosphorylated c-Jun (Ser63). Description: RAW264.7 phosphorylated c-Jun whole cell assay. As to conditions: Mus musculus; cytological assay, activity level; lipopolysaccharide-activated RAW264.7 cells, phospho-c-Jun (Ser63) ELISA. Type of experiment: cell-based. How it is done:
RAW264.7 (ATCC TIB-71) cells were purchased from BeNa Culture Collection and maintained in a high-glucose DMEM medium (Gibco) containing 10% fetal bovine serum (Gibco) and 1% penicillin-streptomycin (Gibco). All cells were cultured at 37° C. in 95% air and 5% CO2. All cells were seeded into 120 μL of cell culture medium in a 96-well plate at a density of 2×10^5 cells per well. The stock solution of compound (15 mM) was serially diluted in DMSO (Sigma) and further diluted in growth medium, and it was then added at 15 μL per well as a 10× concentrated solution, well mixed with the cells and incubated with the cells for 30 min. Concentration of the compound vehicle (DMSO) in each well was 0.2%. After incubation for 30 min, the cells were activated with […] lipopolysaccharide (Sigma). Lipopolysaccharide was added to the growth medium as a 10× concentrated solution at 15 μL per well. The cell plate was incubated for 1 h, and then all the medium was removed. The level of C-Jun protein with phosphorylation of serine at site 63 was measured using the whole cell lysate kit-phosphorylated C-Jun assay (PathScan® Phospho-c-Jun (Ser63) Sandwich ELISA Kit) (CST, 7145C) according to the manufacturer's instructions.

T1 sequence (P45983 whole entry): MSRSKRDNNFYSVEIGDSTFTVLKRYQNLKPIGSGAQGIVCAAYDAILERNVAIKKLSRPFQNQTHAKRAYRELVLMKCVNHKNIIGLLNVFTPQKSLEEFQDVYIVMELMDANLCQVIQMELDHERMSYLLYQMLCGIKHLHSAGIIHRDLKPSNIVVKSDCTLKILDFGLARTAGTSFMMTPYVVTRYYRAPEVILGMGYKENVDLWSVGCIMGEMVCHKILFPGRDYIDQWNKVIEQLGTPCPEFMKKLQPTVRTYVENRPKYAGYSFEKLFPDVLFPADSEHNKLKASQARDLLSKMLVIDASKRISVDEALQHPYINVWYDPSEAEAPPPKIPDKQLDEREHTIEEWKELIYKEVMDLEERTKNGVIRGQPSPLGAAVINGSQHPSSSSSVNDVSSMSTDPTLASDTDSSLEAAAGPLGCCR

On to `CC(C)(C)Nc1ncc(C(N)=O)c(N2CCC(O)CC2)n1` [Compound T006, 2-(tert-butylamino)-4-(4-hydroxypiperidin-l-yl)pyrimidine-5-carboxamide], for which the IC50 (against JNK1 kinase; in experiment [1]) was greater than 1 µM each time.
Take `COC(=O)c1cnc(NC(C)(C)C)nc1N[C@@H]1CC[C@@H](C)[C@H](O)C1` [Compound T005A, Methyl 2-(tert-butylamino)-4-(((IR,3R,4R)-3-hydroxy-4-methylcyclohexyl)amino) pyrimidine-5-carboxylate]: the IC50 (against JNK1 kinase; in experiment [1]) was greater than 1 µM each time.
With `CC(C)(C)Nc1ncc(C(N)=O)c(NC2CCCN(C(=O)CC(=O)O)C2)n1` (stereo not drawn) [Compound T008, 3-(3-((2-(tert-butylamino)-5-carbamoylpyrimidin-4-yl)amino)piperidin-l-yl)-3-oxopropanoic acid], the IC50 (against JNK1 kinase; in experiment [1]) was greater than 1 µM each time.
Take `C[C@@H]1CC[C@@H](Nc2nc(NC(C)(C)C)ncc2-n2ccnc2)C[C@H]1O` [Compound T034, (1R,2R,5R)-5-((2-(ter-butylamino)-5-(1H-imidazol-1-yl)pyrimidin-4-yl)amino)-2-methylcyclohex-1-ol]: the IC50 (against JNK1 kinase; in experiment [1]) was greater than 1 µM throughout.
As for `CC(C)(C)Nc1ncc(C(N)=O)c(NC2CCCN(C(N)=O)C2)n1` (centres unmarked) [Compound T021, 2-(tert-butylamino)-4-((1-carbamoylpiperidin-3-yl)amino) pyrimidine-5-carboxamide], the IC50 on JNK1 kinase was 0.1 to 0.5 µM; in experiment [1], greater than 1 µM.
Consider `C[C@@H]1CC[C@@H](Nc2nc(NC(C)(C)C)ncc2O)C[C@H]1O` [Compound T032, 2-(tert-butylamino)-4-(((1R,3R,4R)-3-hydroxy-4-methylcyclohexyl)amino) pyrimidine-5-ol], for which the IC50 (at JNK1 kinase; in experiment [1]) was greater than 1 µM throughout.
As for `COc1ccc(CNc2ncc(C(N)=O)c(N[C@@H]3CC[C@@H](C)[C@H](O)C3)n2)cc1` [Compound T074, 4-(((1R,3R,4R)-3-hydroxy-4-methylcyclohexyl)amino)-2-((4-methoxybenzyl)amino)pyrimidine-5-carboxamide], the IC50 (at JNK1 kinase; in experiment [1]) was less than 0.1 µM each time.
`CC(C)(C)Nc1ncc(C(N)=O)c(NC2CCC(=O)N(CCO)C2)n1` (stereo not drawn) [Compound T017, 2-(tert-butylamino)-4-((l-(2-hydroxyethyl)-6-oxopiperidin-3-yl)amino)pyrimidine-5-carboxamide]: the IC50 against JNK1 kinase was less than 0.1 µM; in experiment [1], 0.5 to 1 µM.
For the compound `C[C@@H]1CC[C@@H](Nc2cc(NC3C4C[C@H]43)ncc2C(N)=O)C[C@H]1O` (stereo partly drawn) [Compound T060, 6-(((1R,2R)-bicyclo[1 1.0]butan-2-yl)amino)-4-(((1R,3R,4R)-3-hydroxy-4-methylcyclohexyl)amino)nicotinamide], the IC50 (on JNK1 kinase; in experiment [1]) was greater than 1 µM each time.
For the compound `C#Cc1cnc(NC(C)(C)C)nc1N[C@@H]1CC[C@@H](C)[C@H](O)C1` [Compound T064, (1R,2R,5R)-5-((2-(ter-butylamino)-5-ethynylpyrimidin-4-yl)amino)-2-methylcyclohex-1-ol], the IC50 against JNK1 kinase is 0.5 to 1 µM; in experiment [1], greater than 1 µM.
For the compound `CS(=O)(=O)CCn1nccc1Nc1ccnc(N[C@H]2CC[C@H](O)CC2)n1` [Compound T038, (1R,4R)-4-((4-((1-(2-(methylsulfonyl)ethyl)-1H-pyrazol-5-yl)amino)pyrimidin-2-yl)amino)cyclohexan-1-ol], the IC50 (against JNK1 kinase; in experiment [1]) was greater than 1 µM each time.
For the compound `CC(C)(C)Nc1ncc(C(N)=O)c(Nc2cccc(C(=O)O)c2)n1` [Compound T011, 3-((2-(tert-butylamino)-5-carbamoylpyrimidin-4-yl)amino) benzoic acid], the IC50 was 0.5 to 1 µM against JNK1 kinase and greater than 1 µM in experiment [1].
With `C[C@@H]1CC[C@@H](Nc2cc(NC3CCC3O)ncc2C(N)=O)C[C@H]1O` (stereo partly drawn) [Compound T050, 4-(((1R,3R,4R)-3-hydroxy-4-methylcyclohexyl)amino)-6-((2-hydroxycyclobutyl)amino)nicotinamide], the IC50 against JNK1 kinase is 0.5 to 1 µM; in experiment [1], greater than 1 µM.
